Test results reported in patent US11214565B2, “Compound, compositions, and methods” (Denali Therapeutics Inc., priority 2015, dated 2022).
pIC50: −log10 of the molar value.

Molecular target: LRRK2 G2019S enzyme (Homo sapiens (Human), UniProt Q5S007, G2019S)
Assay: LRRK2 G2019S TR-FRET biochemical kinase assay (LRRKtide substrate)
Conditions: Table D-4; 5 nM LRRK2, 134 μM ATP, 60 minute reaction, 23° C.
How it was run: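 TR-FRET phospho-LRRKtide readout (2 nM antibody, 10 mM EDTA, 60 min) after a 60 min, 23 °C kinase reaction. The reaction used 134 μM ATP and 5 nM enzyme in pH 7.5 Tris/MgCl2/EGTA/DTT buffer, with compound and enzyme-substrate mix preincubated for 20 min beforehand.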

Chain of LRRK2 G2019S enzyme (Q5S007 whole entry G2019S): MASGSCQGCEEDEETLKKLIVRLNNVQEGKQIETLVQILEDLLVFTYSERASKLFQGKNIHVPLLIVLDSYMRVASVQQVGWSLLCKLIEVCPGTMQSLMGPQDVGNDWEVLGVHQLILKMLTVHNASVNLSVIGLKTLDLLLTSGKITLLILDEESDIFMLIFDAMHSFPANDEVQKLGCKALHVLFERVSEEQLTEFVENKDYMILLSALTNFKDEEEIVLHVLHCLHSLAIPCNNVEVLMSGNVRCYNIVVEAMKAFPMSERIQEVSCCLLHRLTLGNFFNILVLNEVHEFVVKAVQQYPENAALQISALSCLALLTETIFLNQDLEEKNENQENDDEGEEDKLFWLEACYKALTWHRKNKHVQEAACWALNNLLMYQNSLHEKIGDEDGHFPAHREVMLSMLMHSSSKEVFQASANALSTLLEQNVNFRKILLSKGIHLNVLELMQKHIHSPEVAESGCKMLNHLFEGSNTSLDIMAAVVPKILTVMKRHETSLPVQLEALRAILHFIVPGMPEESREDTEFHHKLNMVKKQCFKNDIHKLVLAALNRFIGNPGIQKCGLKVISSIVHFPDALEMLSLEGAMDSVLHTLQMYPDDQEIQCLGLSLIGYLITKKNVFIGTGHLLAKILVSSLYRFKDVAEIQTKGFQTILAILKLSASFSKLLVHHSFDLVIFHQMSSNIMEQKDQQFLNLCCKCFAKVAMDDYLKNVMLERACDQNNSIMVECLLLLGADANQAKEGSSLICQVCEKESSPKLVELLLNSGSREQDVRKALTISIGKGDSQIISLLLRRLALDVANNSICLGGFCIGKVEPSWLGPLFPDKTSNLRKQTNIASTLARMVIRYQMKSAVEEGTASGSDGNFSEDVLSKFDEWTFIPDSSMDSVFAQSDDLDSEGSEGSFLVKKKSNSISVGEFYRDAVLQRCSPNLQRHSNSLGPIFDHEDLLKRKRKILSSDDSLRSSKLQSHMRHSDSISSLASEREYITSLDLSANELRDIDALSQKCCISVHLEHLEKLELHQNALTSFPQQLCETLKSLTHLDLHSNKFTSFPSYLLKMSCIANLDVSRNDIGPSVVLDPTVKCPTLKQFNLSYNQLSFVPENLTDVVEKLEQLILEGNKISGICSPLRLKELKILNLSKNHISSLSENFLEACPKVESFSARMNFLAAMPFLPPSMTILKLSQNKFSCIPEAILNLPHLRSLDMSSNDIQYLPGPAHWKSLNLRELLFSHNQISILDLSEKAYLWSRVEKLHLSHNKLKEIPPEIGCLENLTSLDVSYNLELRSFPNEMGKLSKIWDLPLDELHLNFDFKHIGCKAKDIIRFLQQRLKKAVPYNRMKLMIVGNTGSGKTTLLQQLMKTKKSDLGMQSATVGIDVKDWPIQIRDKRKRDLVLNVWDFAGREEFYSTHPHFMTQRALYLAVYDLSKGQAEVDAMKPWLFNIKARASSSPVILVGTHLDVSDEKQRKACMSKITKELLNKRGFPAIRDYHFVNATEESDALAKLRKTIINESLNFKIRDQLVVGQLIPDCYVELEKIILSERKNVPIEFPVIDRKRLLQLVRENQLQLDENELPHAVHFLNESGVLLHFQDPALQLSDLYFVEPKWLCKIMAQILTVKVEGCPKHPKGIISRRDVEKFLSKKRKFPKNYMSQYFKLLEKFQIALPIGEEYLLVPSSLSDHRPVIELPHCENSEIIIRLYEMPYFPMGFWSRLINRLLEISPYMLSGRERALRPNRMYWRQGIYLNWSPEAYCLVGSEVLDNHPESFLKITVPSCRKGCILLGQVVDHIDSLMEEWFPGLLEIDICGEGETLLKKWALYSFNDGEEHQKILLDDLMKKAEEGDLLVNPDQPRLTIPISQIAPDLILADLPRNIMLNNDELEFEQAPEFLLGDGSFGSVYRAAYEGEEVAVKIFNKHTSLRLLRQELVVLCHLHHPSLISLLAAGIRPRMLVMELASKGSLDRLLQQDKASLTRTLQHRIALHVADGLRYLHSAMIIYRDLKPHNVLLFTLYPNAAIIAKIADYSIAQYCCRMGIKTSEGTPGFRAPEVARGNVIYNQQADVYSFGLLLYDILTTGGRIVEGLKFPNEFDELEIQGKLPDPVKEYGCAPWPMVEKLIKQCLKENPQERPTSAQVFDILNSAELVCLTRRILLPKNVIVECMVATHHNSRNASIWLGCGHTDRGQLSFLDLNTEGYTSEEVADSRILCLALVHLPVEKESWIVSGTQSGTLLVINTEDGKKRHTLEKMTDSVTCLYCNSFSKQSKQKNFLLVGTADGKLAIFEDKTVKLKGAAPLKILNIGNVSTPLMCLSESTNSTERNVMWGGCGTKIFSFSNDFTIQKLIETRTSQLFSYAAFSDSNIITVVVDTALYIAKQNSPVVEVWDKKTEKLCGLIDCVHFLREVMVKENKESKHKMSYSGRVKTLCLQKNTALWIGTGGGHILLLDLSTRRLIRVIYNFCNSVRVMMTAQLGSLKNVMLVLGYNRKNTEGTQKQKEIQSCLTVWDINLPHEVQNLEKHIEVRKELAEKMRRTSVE

SMILES | pIC50
CNc1nc(Nc2cnn(CC3(CC#N)CC3)c2Cl)ncc1C(F)(F)F [Compound D-33, 2-(1-((5-chloro-4-((4-(methylamino)-5-(trifluoromethyl)pyrimidin-2-yl)amino)-1H-pyrazol-1-yl)methyl)cyclopropyl)acetonitrile] | > 7.52
CNc1nc(Nc2cn(C3CCCn4ccnc43)nc2C)ncc1C(F)(F)F [Compound D-34, N^4-methyl-N^2-(3-methyl-1-(5,6,7,8-tetrahydroimidazo[1,2-a]pyridin-8-yl)-1H-pyrazol-4-yl)-5-(trifluoromethyl)pyrimidine-2,4-diamine] | > 7.52
CNc1nc(Nc2cn(C3CCc4c(C)noc43)nc2C)ncc1C(F)(F)F [Compound D-35, N^4-methyl-N^2-(3-methyl-1-(3-methyl-5,6-dihydro-4H-cyclopenta[d]isoxazol-6-yl)-1H-pyrazol-4-yl)-5-(trifluoromethyl)pyrimidine-2,4-diamine] | > 7.52
CNc1nc(Nc2cn(C3CCn4nccc43)nc2C)ncc1C(F)(F)F [Compound D-36, N^2-(1-(5,6-dihydro-4H-pyrrolo[1,2-b]pyrazol-4-yl)-3-methyl-1H-pyrazol-4-yl)-N^4-methyl-5-(trifluoromethyl)pyrimidine-2,4-diamine] | < 7.22
CNc1nc(Nc2cn(C3CCc4c3cnn4C)nc2C)ncc1C(F)(F)F [Compound D-37, N^4-methyl-N^2-(3-methyl-1-(1-methyl-1,4,5,6-tetrahydrocyclopenta[c]pyrazol-4-yl)-1H-pyrazol-4-yl)-5-(trifluoromethyl)pyrimidine-2,4-diamine] | 7.22 to 7.52
CCSc1nc(Nc2cn(C(C)(C)C#N)nc2C)ncc1Cl [Compound D-44, 2-[4-[(5-chloro-4-ethylsulfanyl-pyrimidin-2-yl)amino]-3-methyl-pyrazol-1-yl]-2-methyl-propanenitrile] | > 7.52
CCSc1nc(Nc2cn(C(C)(C)C#N)nc2C)ncc1C(F)(F)F [Compound D-45, 2-[4-[[4-ethylsulfanyl-5-(trifluoromethyl)pyrimidin-2-yl]amino]-3-methyl-pyrazol-1-yl]-2-methyl-propanenitrile] | > 7.52
CSc1nc(Nc2cn(C(C)(C)C#N)nc2C)ncc1C(F)(F)F [Compound D-46, 2-methyl-2-[3-methyl-4-[[4-methylsulfanyl-5-(trifluoromethyl)pyrimidin-2-yl]amino]pyrazol-1-yl]propanenitrile] | 7.22 to 7.52
CCSc1nc(Nc2cn(C(C)(C)C#N)nc2C)ncc1C#N [Compound D-47, 2-[[1-(1-cyano-1-methyl-ethyl)-3-methyl-pyrazol-4-yl]amino]-4-ethylsulfanyl-pyrimidine-5-carbonitrile] | < 7.22
CNc1nc(Nc2cnn(C(C)COC(F)F)c2C)ncc1C(F)(F)F [Compound D-48, N2-[1-[2-(difluoromethoxy)-1-methyl-ethyl]-5-methyl-pyrazol-4-yl]-5-(difluoromethyl-fluoranyl)-N4-methyl-pyrimidine-2,4-diamine] | > 7.52
CNc1nc(Nc2cnn([C@H]3C[C@@H](n4cccn4)C3)c2C)ncc1C(F)(F)F [Compound D-49, cis-N4-methyl-N2-[5-methyl-1-(3-pyrazol-1-ylcyclobutyl)pyrazol-4-yl]-5-(trifluoromethyl)pyrimidine-2,4-diamine] | > 7.52
CNc1nc(Nc2cnn([C@H]3C[C@@H](S(C)(=O)=O)C3)c2C)ncc1C(F)(F)F [Compound D-50, cis-N4-methyl-N2-[5-methyl-1-(3-methylsulfonylcyclobutyl)pyrazol-4-yl]-5-(trifluoromethyl)pyrimidine-2,4-diamine] | > 7.52
CNc1nc(Nc2cnn(C3CCc4c3cnn4C)c2C)ncc1C(F)(F)F [Compound D-56] | > 7.52
CCNc1nc(Nc2cn(C3CCc4ncsc43)nc2C)ncc1C(F)(F)F [Compound D-57] | > 7.52
CCNc1nc(Nc2cnn([C@H]3C[C@H](n4nccn4)C3)c2C)ncc1C(F)(F)F [Compound D-58] | > 7.52
CCNc1nc(Nc2cnn([C@H]3C[C@@H](n4cncn4)C3)c2C)ncc1C(F)(F)F [Compound D-59] | > 7.52
CCNc1nc(Nc2cnn(C3Cc4nccn4C3)c2C)ncc1C(F)(F)F [Compound D-60] | > 7.52
CCNc1nc(Nc2cnn([C@H]3C[C@H](n4ncnc4C(F)(F)F)C3)c2C)ncc1C(F)(F)F [Compound D-61] | > 7.52
CCNc1nc(Nc2cn(C3CCn4ccnc43)nc2Cl)ncc1C(F)(F)F [Compound D-62] | < 7.22
Cc1c(Nc2ncc(C(F)(F)F)c(NCC(F)F)n2)cnn1[C@H]1C[C@@H](n2cccn2)C1 [Compound D-63] | > 7.52
CNc1nc(Nc2cnn([C@H]3C[C@H](n4cc(F)cn4)C3)c2C)ncc1C(F)(F)F [Compound D-64] | > 7.52

SMILES | pIC50
CCNc1nc(Nc2cnn(C3CCn4nccc43)c2C)ncc1C(F)(F)F [Compound D-65] | > 7.52
CCNc1nc(Nc2cn([C@H]3C[C@H](c4cocn4)C3)nc2C)ncc1C(F)(F)F [Compound D-66] | > 7.52
CNc1nc(Nc2cn(C3CCn4cncc43)nc2C)ncc1C(F)(F)F [Compound D-67] | < 7.22
CCOc1nc(Nc2cn(C3CCn4ccnc43)nc2C)ncc1C(F)(F)F [Compound D-68] | < 7.22
CNc1nc(Nc2cn(C3CCC(n4ccnn4)C3)nc2C)ncc1C(F)(F)F [Compound D-69] | > 7.52
CNc1nc(Nc2cnn(C(C)COC(F)F)c2C)ncc1C(F)(F)F [Compound D-70] | > 7.52
CNc1nc(Nc2cnn([C@H]3C[C@H](n4cccn4)C3)c2C)ncc1C(F)(F)F [Compound D-71] | > 7.52
CNc1nc(Nc2cn(C3(c4ncnn4C)CCC3)nc2C)ncc1C(F)(F)F [Compound D-72] | < 7.22
CCNc1nc(Nc2cnn([C@H]3C[C@H](n4ccnn4)C3)c2C)ncc1C(F)(F)F [Compound D-73] | > 7.52
CCNc1nc(Nc2cn(C3Cc4nccn4C3)nc2C)ncc1C(F)(F)F [Compound D-74] | > 7.52
Cc1c(Nc2ncc(C(F)(F)F)c(NCC(F)F)n2)cnn1[C@H]1C[C@H](n2nccn2)C1 [Compound D-75] | > 7.52
CCNC(=O)C(F)(F)n1cc(Nc2ncc(C(F)(F)F)c(NCC)n2)c(C)n1 [Compound D-76] | > 7.52
CNc1nc(Nc2cnn([C@H]3C[C@@H](n4nccn4)C3)c2C)ncc1C(F)(F)F [Compound D-77] | > 7.52
CCNc1nc(Nc2cnn(C3CCCn4ccnc43)c2C)ncc1C(F)(F)F [Compound D-78] | < 7.22
CCNc1nc(Nc2cn(C3CCc4c(C)noc43)nc2C)ncc1C(F)(F)F [Compound D-79] | > 7.52
CCNc1nc(Nc2cn(C(C)COC(F)F)nc2C)ncc1C(F)(F)F [Compound D-80] | > 7.52
CCNc1nc(Nc2cnn([C@H]3C[C@@H](N4CCOCC4)C3)c2C)ncc1C(F)(F)F [Compound D-81] | > 7.52
CCNc1nc(Nc2cnn(C(C)COC(F)F)c2C)ncc1C(F)(F)F [Compound D-82] | > 7.52
CNc1nc(Nc2cn([C@H]3C[C@@H](c4nncs4)C3)nc2C)ncc1C(F)(F)F [Compound D-83] | > 7.52
CCNc1nc(Nc2cnn([C@H]3C[C@H](c4cocn4)C3)c2C)ncc1C(F)(F)F [Compound D-84] | > 7.52
CCNc1nc(Nc2cnn([C@H]3C[C@H](n4nccn4)C3)c2C)ncc1Br [Compound D-85] | > 7.52

SMILES | pIC50
Cc1c(Nc2ncc(C(F)(F)F)c(NCC(F)F)n2)cnn1[C@H]1C[C@H](n2cccn2)C1 [Compound D-87] | > 7.52
CCNc1nc(Nc2cnn([C@H]3C[C@H](n4cc(F)cn4)C3)c2C)ncc1C(F)(F)F [Compound D-88] | > 7.52
CCNc1nc(Nc2cnn([C@H]3C[C@H](c4nncs4)C3)c2C)ncc1C(F)(F)F [Compound D-89] | > 7.52
CNc1nc(Nc2cnn(C3CCC(n4nccn4)C3)c2C)ncc1C(F)(F)F [Compound D-90] | > 7.52
CCNc1nc(Nc2cnn(C3CCc4c(C)noc43)c2C)ncc1C(F)(F)F [Compound D-91] | > 7.52
CCNc1nc(Nc2cn(C3CCCn4ccnc43)nc2C)ncc1C(F)(F)F [Compound D-92] | 7.22 to 7.52
CCNc1nc(Nc2cnn([C@H]3C[C@@H](n4cccn4)C3)c2C)ncc1C(F)(F)F [Compound D-93] | > 7.52
CNc1nc(Nc2cn([C@H]3C[C@H](n4cccn4)C3)nc2C)ncc1C(F)(F)F [Compound D-94] | > 7.52
CNc1nc(Nc2cn(C3CCCc4c3cnn4C)nc2C)ncc1C(F)(F)F [Compound D-95] | < 7.22
CCNc1nc(Nc2cnn(C3CCc4ncsc43)c2C)ncc1C(F)(F)F [Compound D-97] | > 7.52
CCNc1nc(Nc2cnn([C@H]3C[C@H](n4cccn4)C3)c2C)ncc1C(F)(F)F [Compound D-98] | > 7.52
CNc1nc(Nc2cn(C3CCn4c(Cl)cnc43)nc2C)ncc1C(F)(F)F [Compound D-99] | > 7.52
CCNc1nc(Nc2cn(C(F)(F)C(=O)NC)nc2C)ncc1C(F)(F)F [Compound D-100] | > 7.52
CCNc1nc(Nc2cn(C(F)(F)C(N)=O)nc2C)ncc1C(F)(F)F [Compound D-101] | > 7.52
CCNc1nc(Nc2cnn([C@H]3C[C@H](N4CCCC4=O)C3)c2C)ncc1C(F)(F)F [Compound D-103] | > 7.52
CCNc1nc(Nc2cnn(C3CCn4ccnc43)c2Cl)ncc1C(F)(F)F [Compound D-104] | > 7.52
Cc1c(Nc2ncc(C(F)(F)F)c(NC3CC3)n2)cnn1[C@H]1C[C@H](n2cccn2)C1 [Compound D-106] | > 7.52
CNc1nc(Nc2cnn([C@H]3C[C@H](n4cnc(C)n4)C3)c2C)ncc1C(F)(F)F [Compound D-108] | > 7.52
CNc1nc(Nc2cnn([C@H]3C[C@H](n4ncnc4C)C3)c2C)ncc1C(F)(F)F [Compound D-109] | > 7.52
CCNc1nc(Nc2cnn(C3CCn4cncc43)c2C)ncc1C(F)(F)F [Compound D-110] | > 7.52
CNc1nc(Nc2cnn([C@H]3C[C@H](n4cccn4)C3)c2C)ncc1Br [Compound D-111] | > 7.52
